Laboratory results published in BindingDB's records for patent US9556181 (Bayer Pharma Aktiengesellschaft, 2017).

Target: T1, MAP kinase-interacting serine/threonine-protein kinase 1 [T344D] (Homo sapiens, UniProt Q9BUB5, T344D)
T1 construct: gene MKNK1
Experiment: MKNK1 Kinase High ATP Assay
Conditions: pH 7.5
Text: TBDA recombinant fusion protein of Glutathione-S-Transferase (GST, N-terminally) and human full-length MKNK1 (amino acids 1-424 and T344D of accession number BAA 19885.1), expressed in insect cells using baculovirus expression system and purified via glutathione sepharose affinity chromatography, was purchased from Carna Biosciences (product no 02-145) and used as enzyme. As substrate for the kinase reaction the biotinylated peptide biotin-Ahx-IKKRKLTRRKSLKG (C-terminus in amide form) was used, which can be purchased e.g. from the company Biosyntan (Berlin-Buch, Germany).For the assay 50 nL of a 100 fold concentrated solution of the test compound in DMSO was pipetted into a black low volume 384 well microtiter plate (Greiner Bio-One, Frickenhausen, Germany), 2 μL of a solution of MKNK1 in aqueous assay buffer [50 mM HEPES pH 7.5, 5 mM MgCl2, 1.0 mM dithiothreitol, 0.005% (v/v) Nonidet-P40 (Sigma)] was added and the mixture was incubated for 15 min at 22° C. to allow pre-binding of the test compounds to the enzyme before the start of the kinase reaction. Then the kinase reaction was started by the addition of 3 μL of a solution of adenosine-tri-phosphate (ATP, 3.3 mM=>final conc. in the 5 μL assay volume is 2 mM) and substrate (0.1 μM=>final conc. in the 5 μL assay volume is 0.06 μM) in assay buffer and the resulting mixture was incubated for a reaction time of 30 min at 22° C. […]

T1 sequence (Q9BUB5 whole entry, looked up, stated change not applied): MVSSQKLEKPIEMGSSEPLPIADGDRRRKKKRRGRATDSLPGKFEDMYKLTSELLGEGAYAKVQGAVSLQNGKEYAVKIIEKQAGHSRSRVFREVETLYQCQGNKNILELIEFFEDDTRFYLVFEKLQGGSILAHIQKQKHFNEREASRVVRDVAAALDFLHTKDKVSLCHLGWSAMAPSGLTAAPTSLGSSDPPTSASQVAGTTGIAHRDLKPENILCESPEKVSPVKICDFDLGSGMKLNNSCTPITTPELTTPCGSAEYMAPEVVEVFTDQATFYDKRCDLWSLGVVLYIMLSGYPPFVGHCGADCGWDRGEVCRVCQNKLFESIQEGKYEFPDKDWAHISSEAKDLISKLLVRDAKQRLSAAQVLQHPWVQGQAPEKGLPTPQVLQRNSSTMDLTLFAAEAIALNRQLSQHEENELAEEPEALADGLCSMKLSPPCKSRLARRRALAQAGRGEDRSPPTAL

Q: For `COc1cc2[nH]ncc2cc1Nc1ncnc2[nH]ncc12` [US9556181, 2], which IC50 is on record?
A: Its IC50 is 49 nM.
